In ChEMBL document CHEMBL4828771, “Discovery and Development of a Potent, Selective, and Orally Bioavailable CHK1 Inhibitor Candidate: 5-((4-((3-Amino-3-methylbutyl)amino)-5-(trifluoromethyl)pyrimidin-2-yl)amino)picolinonitrile” (J Med Chem, 2021):
Activity calls are given as the source filed them. No cut-off for these calls is given here.

Columns and labels:
[1] = molecular target: T1, Serine/threonine-protein kinase Chk1 (Homo sapiens) (UniProt O14757); experiment: Inhibition of wild type human CHK1 (M1 to G289 residue) expressed in bacterial expression system assessed as protein activity at 0.5 uM relative to control; parameters: scale not given: the % may be the effect or the level left
T1 sequence (whole entry): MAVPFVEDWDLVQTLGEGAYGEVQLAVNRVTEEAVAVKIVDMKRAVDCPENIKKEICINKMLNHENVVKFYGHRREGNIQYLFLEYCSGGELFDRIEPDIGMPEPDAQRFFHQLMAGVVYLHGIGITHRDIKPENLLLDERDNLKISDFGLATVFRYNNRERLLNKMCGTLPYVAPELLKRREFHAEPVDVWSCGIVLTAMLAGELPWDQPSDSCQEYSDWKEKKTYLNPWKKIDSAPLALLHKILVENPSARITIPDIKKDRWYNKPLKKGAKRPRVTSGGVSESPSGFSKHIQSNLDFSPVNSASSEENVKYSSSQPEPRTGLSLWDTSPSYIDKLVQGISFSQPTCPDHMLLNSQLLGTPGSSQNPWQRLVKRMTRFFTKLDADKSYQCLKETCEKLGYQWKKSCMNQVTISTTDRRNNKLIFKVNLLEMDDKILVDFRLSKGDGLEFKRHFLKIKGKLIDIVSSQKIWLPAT

[2] = MRT (0 to infinity) in ICR mouse at 20 mg/kg, po measured after 0.083 to 48 hrs by LC-MS/MS analysis; assay type: ADME, organism-based; conditions: in vivo, time 0.083-48 hrs
[3] = tested on: Mus musculus; experiment: Downregulation of S296 phosphorylation in tumor of mouse xenografted with human HT-29 cells at 30 mg/kg, po dosed 5 days/week for 22 days cotreated with gemcitabine by Western blot analysis; assay type: functional, organism-based; conditions: time 22.0 day
[4] = molecular target: Calcium/calmodulin-dependent protein kinase type II subunit delta (Homo sapiens) (UniProt Q13557); experiment: Inhibition of wild type human CAMK2D (M1 to E329 residues) expressed in bacterial expression system assessed as protein activity at 0.5 uM relative to control; parameters: scale not given: the % may be the effect or the level left
[5] = Cmax in ICR mouse at 20 mg/kg, po measured after 0.083 to 48 hrs by LC-MS/MS analysis; assay type: ADME, organism-based; parameters: route oral, time upper 48 hrs, time lower 0.083 hrs, dose 20 mg/kg; conditions: in vivo
[6] = tested on: HT-29; experiment: Antitumor activity against human HT-29 cells xenografted in mouse assessed as reduction in tumor growth by measuring T/C ratio at 30 mg/kg, po cotreated with gemcitabine dosed 5 days/week for 22 days measured twice every week; assay type: functional; conditions: time 22 day
[7] = tested on: HT-29; experiment: Antiproliferative activity against human HT-29 cells incubated for 72 hrs in presence of gemcitabine by CCK8 assay; assay type: functional, cell-based
[8] = tested on: Mus musculus; experiment: Downregulation of S296 phosphorylation in tumor of mouse xenografted with human HT-29 cells at 30 mg/kg, po dosed 5 days/week for 22 days by Western blot analysis; assay type: functional, organism-based; conditions: time 22.0 day
[9] = tested on: MV4-11; experiment: Antitumor activity against human MV4-11 cells xenografted in mouse assessed as inhibition of tumor growth at 30 mg/kg, po dosed for 21 days measured twice every week relative to control; assay type: functional; conditions: MV4-11, po, 504 h, time 21 day, read-out: TGI
[10] = molecular target: Calcium/calmodulin-dependent protein kinase type II subunit beta (Homo sapiens) (UniProt Q13554); experiment: Inhibition of wild type human CAMK2B (M1 to Q380 residues) expressed in bacterial expression system assessed as protein activity at 0.5 uM relative to control; parameters: scale not given: the % may be the effect or the level left
[11] = tested on: Mus musculus; experiment: Induction of S345 phosphorylation in tumor of mouse xenografted with human HT-29 cells at 30 mg/kg, po dosed 5 days/week for 22 days by Western blot analysis; assay type: functional, organism-based; conditions: time 22.0 day
[12] = Half life in ICR mouse at 20 mg/kg, po measured after 0.083 to 48 hrs by LC-MS/MS analysis; assay type: ADME, organism-based; conditions: in vivo, time 0.083-48 hrs
[13] = molecular target: T2, Serine/threonine-protein kinase DCLK3 (Homo sapiens) (UniProt Q9C098); experiment: Inhibition of wild type human DCAMKL3 (M1 to G289 residue) expressed in bacterial expression system assessed as protein activity at 0.5 uM relative to control; parameters: scale not given: the % may be the effect or the level left
T2 sequence (whole entry): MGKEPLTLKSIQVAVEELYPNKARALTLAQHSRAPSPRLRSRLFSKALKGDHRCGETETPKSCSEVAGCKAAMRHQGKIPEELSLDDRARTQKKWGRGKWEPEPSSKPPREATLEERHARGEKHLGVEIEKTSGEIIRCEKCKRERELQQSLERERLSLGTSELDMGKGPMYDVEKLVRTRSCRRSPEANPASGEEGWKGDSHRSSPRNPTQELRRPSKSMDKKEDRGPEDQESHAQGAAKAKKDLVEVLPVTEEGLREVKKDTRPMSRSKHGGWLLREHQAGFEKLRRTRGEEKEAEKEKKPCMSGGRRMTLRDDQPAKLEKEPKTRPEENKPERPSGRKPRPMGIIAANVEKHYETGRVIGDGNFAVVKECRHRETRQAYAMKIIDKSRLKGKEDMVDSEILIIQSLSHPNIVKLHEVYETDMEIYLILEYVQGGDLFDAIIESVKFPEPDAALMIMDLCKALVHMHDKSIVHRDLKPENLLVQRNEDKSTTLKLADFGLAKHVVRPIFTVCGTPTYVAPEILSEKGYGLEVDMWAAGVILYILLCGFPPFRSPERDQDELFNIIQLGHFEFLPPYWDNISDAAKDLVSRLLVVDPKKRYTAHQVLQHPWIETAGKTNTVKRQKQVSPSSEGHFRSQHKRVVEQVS

[14] = tested on: A549; experiment: Antiproliferative activity against human A549 cells incubated for 72 hrs by CCK8 assay; assay type: functional, cell-based
[15] = tested on: MV4-11; experiment: Antiproliferation activity against human MV4-11 cells assessed as reduction in cell viability incubated for 72 hrs by MTS assay; assay type: functional, cell-based; conditions: MV4-11, 72 h
[16] = molecular target: Ribosomal protein S6 kinase alpha-3 (Homo sapiens) (UniProt P51812); experiment: Inhibition of wild type human RSK2 expressed in mammalian expression system assessed as protein activity at 0.5 uM relative to control; parameters: scale not given: the % may be the effect or the level left
[17] = molecular target: T3, Serine/threonine-protein kinase Chk1 (Homo sapiens, UniProt O14757); experiment: Inhibition of CHK1 (unknown origin) incubated for 1 hr in presence of ATP by HTRF assay
T3 sequence (O14757 whole entry): T1 sequence (whole entry)

[18] = AUCt in ICR mouse at 20 mg/kg, po measured after 0.083 to 48 hrs by LC-MS/MS analysis; assay type: ADME, organism-based; parameters: route oral, dose 20 mg/kg, time 0.083-48 hrs; conditions: in vivo
[19] = tested on: RPMI-8226; experiment: Antiproliferative activity against human RPMI-8226 cells incubated for 72 hrs in presence of gemcitabine by CCK8 assay; assay type: functional, cell-based
[20] = molecular target: Ribosomal protein S6 kinase alpha-2 (Homo sapiens) (UniProt Q15349); experiment: Inhibition of wild type human RSK3 expressed in bacterial expression system assessed as protein activity at 0.5 uM relative to control; parameters: scale not given: the % may be the effect or the level left
[21] = Selectivity ratio of Antiproliferative activity against human A549 cells to Antiproliferative activity against human A549 cells in presence of gemcitabine; assay type: functional
[22] = tested on: Z-138; experiment: Antiproliferation activity against human Z138 cells assessed as reduction in cell viability incubated for 72 hrs by MTS assay; assay type: functional, cell-based; conditions: Z-138, 72 h
[23] = molecular target: T1, Serine/threonine-protein kinase Chk1 (Homo sapiens); experiment: Inhibition of CHK1 in human MV4-11 cells assessed as reduction in autophosphorylation at S296 residue incubated for 2 hrs by Western blot analysis; assay type: cell-based

Chain of Calcium/calmodulin-dependent protein kinase type II subunit delta (Homo sapiens) (Q13557 whole entry, the tested form may be a part): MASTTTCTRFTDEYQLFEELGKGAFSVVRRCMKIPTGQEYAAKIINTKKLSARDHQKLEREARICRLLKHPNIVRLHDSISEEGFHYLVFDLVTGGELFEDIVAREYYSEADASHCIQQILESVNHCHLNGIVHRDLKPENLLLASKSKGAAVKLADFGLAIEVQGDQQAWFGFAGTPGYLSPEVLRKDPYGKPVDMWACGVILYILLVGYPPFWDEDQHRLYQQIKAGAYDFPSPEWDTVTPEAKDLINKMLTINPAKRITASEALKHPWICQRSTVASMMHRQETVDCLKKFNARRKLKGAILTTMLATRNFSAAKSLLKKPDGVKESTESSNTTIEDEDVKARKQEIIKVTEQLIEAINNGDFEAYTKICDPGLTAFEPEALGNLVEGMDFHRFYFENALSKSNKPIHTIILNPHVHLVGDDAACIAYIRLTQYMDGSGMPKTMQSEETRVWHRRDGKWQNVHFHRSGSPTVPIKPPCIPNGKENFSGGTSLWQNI
Chain of Ribosomal protein S6 kinase alpha-3 (Homo sapiens) (P51812 whole entry): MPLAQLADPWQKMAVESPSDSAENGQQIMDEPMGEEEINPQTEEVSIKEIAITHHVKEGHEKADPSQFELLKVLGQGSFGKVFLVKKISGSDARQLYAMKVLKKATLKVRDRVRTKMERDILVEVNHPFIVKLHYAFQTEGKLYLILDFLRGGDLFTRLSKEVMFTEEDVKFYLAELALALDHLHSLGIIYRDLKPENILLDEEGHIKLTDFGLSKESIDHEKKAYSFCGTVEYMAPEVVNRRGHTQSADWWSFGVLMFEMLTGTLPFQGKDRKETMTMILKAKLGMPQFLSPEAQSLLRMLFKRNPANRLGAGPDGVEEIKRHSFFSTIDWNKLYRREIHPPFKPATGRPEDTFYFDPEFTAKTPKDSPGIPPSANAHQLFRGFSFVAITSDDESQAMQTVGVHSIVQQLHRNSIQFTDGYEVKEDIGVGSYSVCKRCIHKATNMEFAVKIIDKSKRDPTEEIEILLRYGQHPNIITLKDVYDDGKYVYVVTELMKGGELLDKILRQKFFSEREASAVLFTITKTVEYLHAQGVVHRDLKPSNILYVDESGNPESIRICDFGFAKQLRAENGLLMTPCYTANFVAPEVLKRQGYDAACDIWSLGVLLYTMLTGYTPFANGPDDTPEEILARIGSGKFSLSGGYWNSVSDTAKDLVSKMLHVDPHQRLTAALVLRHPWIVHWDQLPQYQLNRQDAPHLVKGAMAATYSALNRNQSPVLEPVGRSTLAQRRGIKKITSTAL
Chain of Ribosomal protein S6 kinase alpha-2 (Homo sapiens) (Q15349 whole entry): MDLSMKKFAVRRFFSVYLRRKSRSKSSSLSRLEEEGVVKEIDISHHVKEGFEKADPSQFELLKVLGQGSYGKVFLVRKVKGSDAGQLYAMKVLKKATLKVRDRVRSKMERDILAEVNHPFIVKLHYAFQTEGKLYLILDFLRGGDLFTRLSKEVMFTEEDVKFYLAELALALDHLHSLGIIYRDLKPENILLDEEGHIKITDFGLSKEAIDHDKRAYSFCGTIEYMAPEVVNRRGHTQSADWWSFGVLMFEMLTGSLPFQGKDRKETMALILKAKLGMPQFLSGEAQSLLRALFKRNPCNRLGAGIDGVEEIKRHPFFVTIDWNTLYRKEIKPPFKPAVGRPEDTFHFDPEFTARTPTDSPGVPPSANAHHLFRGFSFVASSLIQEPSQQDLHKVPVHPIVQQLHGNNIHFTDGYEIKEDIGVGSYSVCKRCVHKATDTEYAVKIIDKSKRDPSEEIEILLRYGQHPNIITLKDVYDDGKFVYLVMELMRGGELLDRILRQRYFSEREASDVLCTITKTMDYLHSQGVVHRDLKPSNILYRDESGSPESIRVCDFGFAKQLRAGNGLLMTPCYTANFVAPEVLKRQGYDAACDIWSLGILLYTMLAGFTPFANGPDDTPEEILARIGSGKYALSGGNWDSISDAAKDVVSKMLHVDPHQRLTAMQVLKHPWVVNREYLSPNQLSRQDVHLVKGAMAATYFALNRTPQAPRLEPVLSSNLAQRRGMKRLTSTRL
Chain of Calcium/calmodulin-dependent protein kinase type II subunit beta (Homo sapiens) (Q13554 whole entry, the tested form may be a part): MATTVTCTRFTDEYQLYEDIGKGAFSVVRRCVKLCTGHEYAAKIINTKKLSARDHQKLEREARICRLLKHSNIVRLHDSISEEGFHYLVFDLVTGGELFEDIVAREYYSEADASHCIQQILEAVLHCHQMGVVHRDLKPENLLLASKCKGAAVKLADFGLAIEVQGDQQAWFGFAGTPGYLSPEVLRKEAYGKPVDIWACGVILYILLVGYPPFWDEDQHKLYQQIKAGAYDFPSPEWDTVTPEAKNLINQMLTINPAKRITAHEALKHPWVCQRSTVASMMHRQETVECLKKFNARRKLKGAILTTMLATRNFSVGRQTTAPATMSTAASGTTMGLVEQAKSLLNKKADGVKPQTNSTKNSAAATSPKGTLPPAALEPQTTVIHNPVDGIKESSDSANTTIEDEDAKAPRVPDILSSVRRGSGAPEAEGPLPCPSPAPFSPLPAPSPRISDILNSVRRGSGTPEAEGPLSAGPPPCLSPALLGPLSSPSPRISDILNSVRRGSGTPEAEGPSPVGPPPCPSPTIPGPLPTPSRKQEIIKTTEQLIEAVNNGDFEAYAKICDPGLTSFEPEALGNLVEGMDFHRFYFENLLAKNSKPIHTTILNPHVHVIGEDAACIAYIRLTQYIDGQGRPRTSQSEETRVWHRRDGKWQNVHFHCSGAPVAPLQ

Activity [1]: 4%
MRT inf [2]: 14.7 h
Activity [4]: 19%
Cmax [5]: 1.45 µg/mL
Activity [10]: 18%
half-life [12]: 10.8 h
Activity [13]: 7%
IC50 [15]: 0.14 µM
Activity [16]: 13%
IC50 [17]: 0.0161 µM
AUC(0-t) [18]: 17.7 µg·h/mL
Activity [20]: 14%
inhibition [23]: Dose-Dependent Effect
SMILES: CC(C)(N)CCNc1nc(Nc2ccc(C#N)nc2)ncc1C(F)(F)F
Activity [3]: Active
T/C [6]: 11.99%
Activity [7]: Active
Activity [8]: Active
inhibition in vivo at 30 mg/kg [9]: 94.9%
Activity [11]: Active
Activity [14]: Active
Activity [19]: Active
Ratio [21]: 100
IC50 [22]: 3.28 µM
